Measurements published in US9884832B2 (priority 2011, dated 2018).

Each compound was assayed against AM2 S31N (serine→asparagine mutation at residue 31 in the M2 protein) (Influenza A virus, UniProt P0DOF5, S31N). Conditions: not given.
Format: cell-based, influenza virus A/Udorn/72

| Compound | S31N OOcyte Inhibition at 100 uM (%) |
| --- | --- |
| c1coc(-c2nc(CNC34CC5CC(CC(C5)C3)C4)no2)c1 [Example 160a, N-((5-(furan-2-yl)-1,2,4-oxadiazol-3-yl)methyl)adamantan-1-amine] | A (key: (A)=31-95%; (B)=0-30%) |
| COc1ccc(-c2cc(CNC34CC5CC(CC(C5)C3)C4)on2)cc1 [Example 122a, N-((3-(4-methoxyphenyl)isoxazol-5-yl)methyl)adamantan-1-amine] | A (key: (A)=31-95%; (B)=0-30%) |
| c1csc(-c2noc(CNC34CC5CC(CC(C5)C3)C4)n2)c1 [Example 148a, N-((3-(thiophen-2-yl)-1,2,4-oxadiazol-5-yl)methyl)adamantan-1-amine] | A (key: (A)=31-95%; (B)=0-30%) |
| C(NC12CC3CC(CC(C3)C1)C2)c1noc(C2CC2)n1 [Example 166a] | A (key: (A)=31-95%; (B)=0-30%) |
| Cc1nc(CNC23CC4CC(CC(C4)C2)C3)no1 [Example 96a, N-((5-methyl-1,2,4-oxadiazol-3-yl)methyl)adamantan-1-amine] | A (key: (A)=31-95%; (B)=0-30%) |
| c1c(CNC23CC4CC(CC(C4)C2)C3)noc1CN1CCOCC1 [Example 106a, N-((5-(morpholinomethyl)isoxazol-3-yl)methyl)adamantan-1-amine] | B (key: (A)=31-95%; (B)=0-30%) |
| c1csc(-c2nnc(CNC34CC5CC(CC(C5)C3)C4)s2)c1 [Example 151a, N-((5-(thiophen-2-yl)-1,3,4-thiadiazol-2-yl)methyl)adamantan-1-amine] | A (key: (A)=31-95%; (B)=0-30%) |
| Clc1cc2cc(CNC34CC5CC(CC(C5)C3)C4)sc2s1 [Example 173a, Adamantan-1-yl-(5-chloro-thieno[2,3-b]thiophen-2-ylmethyl)-amine] | A (key: (A)=31-95%; (B)=0-30%) |
| Cc1ncc(CN(Cc2cnc(C)s2)C23CC4CC(CC(C4)C2)C3)s1 [Example 202a, N,N-bis((2-methylthiazol-5-yl)methyl)adamantan-1-amine] | B (key: (A)=31-95%; (B)=0-30%) |
| C1CCC(c2nc(CNC34CC5CC(CC(C5)C3)C4)no2)C1 [Example 109a, N-((5-cyclopentyl-1,2,4-oxadiazol-3-yl)methyl)adamantan-1-amine] | A (key: (A)=31-95%; (B)=0-30%) |
| CC(C)(C)c1ccc(-c2noc(CNC34CC5CC(CC(C5)C3)C4)n2)cc1 [Example 124a, N-((3-(4-(tert-butyl)phenyl)-1,2,4-oxadiazol-5-yl)methyl)adamantan-1-amine] | B (key: (A)=31-95%; (B)=0-30%) |
| OC12CC3CC(C1)CC(NCc1cc4cc(Br)sc4s1)(C3)C2 [Example 195a, 3-[(5-Bromo-thieno[2,3-b]thiophen-2-ylmethyl)-amino]-adamantan-1-ol] | A (key: (A)=31-95%; (B)=0-30%) |
| c1cc(C2CC2)ccc1CNC12CC3CC(CC(C3)C1)C2 [Example 9a, N-(4-Cyclopropylbenzyl)adamantan-1-amine] | A (key: (A)=31-95%; (B)=0-30%) |
| c1ccc(-c2ncc(CNC34CC5CC(CC(C5)C3)C4)cn2)cc1 [Example 63a, N-((2-phenylpyrimidin-5-yl)methyl)adamantan-1-amine] | A (key: (A)=31-95%; (B)=0-30%) |
| c1ccc(-c2noc(CNC34CC5CC(CC(C5)C3)C4)n2)cc1 [Example 123a, N-((3-phenyl-1,2,4-oxadiazol-5-yl)methyl)adamantan-1-amine] | A (key: (A)=31-95%; (B)=0-30%) |
| Cc1ccc(-c2nc(CNC34CC5CC(CC(C5)C3)C4)no2)cc1 [Example 128a, N-((5-(p-tolyl)-1,2,4-oxadiazol-3-yl)methyl)adamantan-1-amine] | A (key: (A)=31-95%; (B)=0-30%) |
| c1cc2cn[nH]c2cc1CNC12CC3CC(CC(C3)C1)C2 [Example 43a, N-((1H-indazol-6-yl)methyl)adamantan-1-amine] | B (key: (A)=31-95%; (B)=0-30%) |

Same assay, conditions: pH 5.5

| Compound | S31N OOcyte Inhibition at 100 uM (%) |
| --- | --- |
| c1ccc(-c2cnc(CNC34CC5CC(CC(C5)C3)C4)[nH]2)cc1 [Example 53b, N-((5-phenyl-1H-imidazol-2-yl)methyl)adamantan-1-amine] | A (key: (A)=31-95%; (B)=0-30%) |
| CSc1ccccc1-c1cc(CNC23CC4CC(CC(C4)C2)C3)no1 [Example 42b, N-((5-(2-(methylthio)phenyl)isoxazol-3-yl)methyl)adamantan-1-amine] | A (key: (A)=31-95%; (B)=0-30%) |
| Fc1cccc(F)c1-c1cc(CNC23CC4CC(CC(C4)C2)C3)no1 [Example 38b, N-((5-(2,6-difluorophenyl)isoxazol-3-yl)methyl)adamantan-1-amine] | A (key: (A)=31-95%; (B)=0-30%) |
| COc1ncc(CNC23CC4CC(CC(C4)C2)C3)cn1 [Example 55b, N-((2-methoxypyrimidin-5-yl)methyl)adamantan-1-amine] | A (key: (A)=31-95%; (B)=0-30%) |
| CN(C)c1ncc(CNC23CC4CC(CC(C4)C2)C3)cn1 [Example 59b, N-((2-dimethylaminopyrimidin-5-yl)methyl)adamantan-1-amine] | A (key: (A)=31-95%; (B)=0-30%) |
| COc1ccc(-c2nc(CNC34CC5CC(CC(C5)C3)C4)no2)c(OC)c1 [Example 34b, N-((5-(2,4-dimethoxyphenyl)-1,2,4-oxadiazol-3-yl)methyl)adamantan-1-amine] | A (key: (A)=31-95%; (B)=0-30%) |
| C[Si](C)(C)c1ccc(CNC23CC4CC(CC(C4)C2)C3)s1 [Example 75b, Adamantan-1-yl-(5-trimethylsilanyl-thiophen-2-ylmethyl)-amine] | A (key: (A)=31-95%; (B)=0-30%) |
| CSc1ccc(-c2cc(CNC34CC5CC(CC3C5)C4)no2)cc1 [Example 90b, (2R,3as,5S,6as)-N-((5-(4-(methylthio)phenyl)isoxazol-3-yl)methyl)octahydro-2,5-methanopentalen-3a-amine] | A (key: (A)=31-95%; (B)=0-30%) |
| CC(C)(C)c1ccc(-c2ccc(CNC34CC5CC(CC(C5)C3)C4)s2)cc1 [Example 50b, N-((5-(4-(tert-Butyl)phenyl)thiophen-2-yl)methyl)adamantan-1-amine] | A (key: (A)=31-95%; (B)=0-30%) |
| Cc1noc(C)c1-c1nc(CNC23CC4CC(CC(C4)C2)C3)no1 [Example 25b, N-((5-(3,5-dimethylisoxazol-4-yl)-1,2,4-oxadiazol-3-yl)methyl)adamantan-1-amine] | B (key: (A)=31-95%; (B)=0-30%) |
| Cc1csc(-c2ccc(CNC34CC5CC(CC(C5)C3)C4)s2)c1 [Example 51b, N-((4′-Methyl-[2,2′-bithiophen]-5-yl)methyl)adamantan-1-amine] | A (key: (A)=31-95%; (B)=0-30%) |
| CC(C)Cc1nc(CNC23CC4CC(CC(C4)C2)C3)no1 [Example 22b, N-((5-isobutyl-1,2,4-oxadiazol-3-yl)methyl)adamantan-1-amine] | A (key: (A)=31-95%; (B)=0-30%) |
| Cc1csc(-c2ccc(CNC34CC5CC(CC(C5)C3)C4)cc2)c1 [Example 5b, N-(4-(4-Methylthiophen-2-yl)benzyl)adamantan-1-amine] | A (key: (A)=31-95%; (B)=0-30%) |
| C1CCC(c2nc(CNC34CC5CC(CC(C5)C3)C4)no2)CC1 [Example 24b] | A (key: (A)=31-95%; (B)=0-30%) |
| CC(C)c1cc(CNC23CC4CC(CC(C4)C2)C3)no1 [Example 27b, N-((5-isopropylisoxazol-3-yl)methyl)adamantan-1-amine] | A (key: (A)=31-95%; (B)=0-30%) |
| O=C(CNC12CC3CC(CC(C3)C1)C2)c1cccs1 [Example 87b, 2-(adamantan-1-ylamino)-1-(thiophen-2-yl)ethanone] | B (key: (A)=31-95%; (B)=0-30%) |
| OC12CC3CC(C1)CC(NCc1noc(C4CCCCC4)n1)(C3)C2 [Example 86b, (1s,3r,5R,7S)-3-(((5-cyclohexyl-1,2,4-oxadiazol-3-yl)methyl)amino)adamantan-1-ol] | A (key: (A)=31-95%; (B)=0-30%) |
| COc1ccccc1-c1nc(CNC23CC4CC(CC(C4)C2)C3)no1 [Example 15b, N-((5-(2-methoxyphenyl)-1,2,4-oxadiazol-3-yl)methyl)adamantan-1-amine] | A (key: (A)=31-95%; (B)=0-30%) |
| Cc1ccc(-c2ccc(CNC34CC5CC(CC(C5)C3)C4)s2)o1 [Example 52b, N-((5-(5-Methylfuran-2-yl)thiophen-2-yl)methyl)adamantan-1-amine] | A (key: (A)=31-95%; (B)=0-30%) |
| Clc1ccc(CNC23CC4CC(CC(C4)C2)C3)cc1 [Example 1b, N-(4-Chlorobenzyl)adamantan-1-amine] | A (key: (A)=31-95%; (B)=0-30%) |
| CC(NC12CC3CC(CC(C3)C1)C2)c1ccc(-c2ccccc2)cc1 (stereo not shown) [Example 4b, N-(1-([1,1′-biphenyl]-4-yl)ethyl)adamantan-1-amine] | B (key: (A)=31-95%; (B)=0-30%) |
| CSc1ccc(-c2cc(CNC34CC5CCC(CC(C5)C3)C4)no2)cc1 [Example 91b, (1S,3R,8S)—N-((5-(4-(methylthio)phenyl)isoxazol-3-yl)methyl)tricyclo[4.3.1.13,8]undecan-1-amine] | A (key: (A)=31-95%; (B)=0-30%) |
| CC(C)c1cc(CNC23CC4CC(CC(O)(C4)C2)C3)no1 [Example 85b, (1s,3r,5R,7S)-3-(((5-isopropylisoxazol-3-yl)methyl)amino)adamantan-1-61] | A (key: (A)=31-95%; (B)=0-30%) |
| c1nc(CNC23CC4CC(CC(C4)C2)C3)sc1C1CC1 [Example 65b, Adamantan-1-yl-(5-cyclopropyl-thiazol-2-ylmethyl)-amine] | A (key: (A)=31-95%; (B)=0-30%) |
| Clc1ncc(CNC23CC4CC(CC(C4)C2)C3)s1 [Example 13b, N-((2-chlorothiazol-5-yl)methyl)adamantan-1-amine] | B (key: (A)=31-95%; (B)=0-30%) |
| COc1ccc(-c2noc(CNC34CC5CC(CC(C5)C3)C4)n2)cc1OC [Example 35b, N-((3-(3,4-dimethoxyphenyl)-1,2,4-oxadiazol-5-yl)methyl)adamantan-1-amine] | A (key: (A)=31-95%; (B)=0-30%) |
